Counter-ions that a name gives are not always drawn.
Experiments:
human α1D receptor = biological target: T1, human α1D receptor (Homo sapiens, UniProt P25100); assay: Radioligand binding to adrenergic receptor α1D ([3H] Prazosin, HEK-293 membranes); conditions: for inhibition at 10 µM: read-out: α-Adrenoceptor, % inhibition α1D; for α-Adrenoceptor, % inhibition α1D: 10 µM ligand
T1 construct: expressed in transfected cells; host or cells: HEK-293
T1 sequence (P25100 1-572): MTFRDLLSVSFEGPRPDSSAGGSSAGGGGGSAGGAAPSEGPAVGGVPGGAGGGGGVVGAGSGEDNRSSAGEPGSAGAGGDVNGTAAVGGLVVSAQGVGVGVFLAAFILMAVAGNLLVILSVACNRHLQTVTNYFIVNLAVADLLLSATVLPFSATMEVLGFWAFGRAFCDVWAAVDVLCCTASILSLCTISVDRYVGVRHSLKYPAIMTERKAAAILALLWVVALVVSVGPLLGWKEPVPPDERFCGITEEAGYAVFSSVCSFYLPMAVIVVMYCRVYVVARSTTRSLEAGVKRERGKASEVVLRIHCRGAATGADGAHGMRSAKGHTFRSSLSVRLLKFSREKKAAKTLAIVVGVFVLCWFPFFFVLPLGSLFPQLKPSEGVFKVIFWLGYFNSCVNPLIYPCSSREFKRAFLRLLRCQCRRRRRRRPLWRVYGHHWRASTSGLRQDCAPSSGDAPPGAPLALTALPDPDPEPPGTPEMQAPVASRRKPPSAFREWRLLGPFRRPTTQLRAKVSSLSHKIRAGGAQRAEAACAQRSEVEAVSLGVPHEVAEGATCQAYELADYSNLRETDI
Source text: 6-C. […] For this purpose sDNA of human α1D receptor is expressed in HEK-293 cells, as it was described in [TL Theroux, TA Esbenshade, RD Peavy and KP Minneman. Coupling efficiencies of human alpha 1-adrenergic receptor subtypes: titration of receptor density and responsiveness with inducible and repressible expression vectors. Mol Pharmacol.; 50: 1376-1387, 1996]. […] Characterization of an α1D-adrenoceptor mediating the contractile response of rat aorta to noradrenaline. […] Prazosin is used as positive control.

imidazoline receptor I2 = assay: Radioligand binding to imidazoline receptor I2 ([3H] Idazoxan, rat brain membranes); conditions: 10 µM ligand
Procedure: For this purpose membrane species are prepared from rat (Wistar) brain homogenates by homogenization of them in glass homogenizer with the subsequent separation of plasmatic membranes from cell nuclei, mitochondrias and cell wreckages by differential centrifugation. […] After incubation the samples are filtered in vacuo on glass-microfiber filters G/F (Millipor, USA), filters are washed three times with cold solution of medium and radioactivity is measured by scintillation counter MicroBeta 340 (Perkin Elmer, USA). […] Idazoxan is used as positive control.
The tested compounds' binding to the receptor is determined by their ability to displace the radioligand and expressed in percent of displacement (%I). Values of %I are calculated according to the following equation: %I = (TA-CA)/(TA-NA)*100, [formula] wherein: TA - is the overall radioactivity in the presence of radioligand only, CA - is the radioactivity in the presence of radioligand and tested compound and NA - is a radioactivity in the presence of radioligand and Idazoxan (1 µM).

[1] = biological target: T2, recombinant human 5-HT6 receptor (Homo sapiens, UniProt P50406); assay: Radioligand binding to serotonin receptor 5-HT6 ([3H] Lysergic acid diethylamide, HeLa membranes); conditions: for inhibition at 1 µM: read-out: 5-HT6 % inhibition
T2 construct: expressed in transfected cells; host or cells: HeLa
Source text: Mol Pharmacol. 43:320-327, 1993]. […] Methiothepin is used as positive control.

adrenergic receptor α1A = biological target: T3, adrenergic receptor α1A (Rattus norvegicus, UniProt P43140); assay: Radioligand binding to adrenergic receptor α1A ([3H] Prazosin, rat submaxillary gland membranes); conditions: for α-Adrenoceptor, % inhibition α1A: 10 µM ligand
T3 construct: membrane species from rat submaxillary glands (rat of Wistar breed) are prepared; from tissue; host or cells: rat (Wistar) submaxillary gland
T3 sequence (P43140 1-466): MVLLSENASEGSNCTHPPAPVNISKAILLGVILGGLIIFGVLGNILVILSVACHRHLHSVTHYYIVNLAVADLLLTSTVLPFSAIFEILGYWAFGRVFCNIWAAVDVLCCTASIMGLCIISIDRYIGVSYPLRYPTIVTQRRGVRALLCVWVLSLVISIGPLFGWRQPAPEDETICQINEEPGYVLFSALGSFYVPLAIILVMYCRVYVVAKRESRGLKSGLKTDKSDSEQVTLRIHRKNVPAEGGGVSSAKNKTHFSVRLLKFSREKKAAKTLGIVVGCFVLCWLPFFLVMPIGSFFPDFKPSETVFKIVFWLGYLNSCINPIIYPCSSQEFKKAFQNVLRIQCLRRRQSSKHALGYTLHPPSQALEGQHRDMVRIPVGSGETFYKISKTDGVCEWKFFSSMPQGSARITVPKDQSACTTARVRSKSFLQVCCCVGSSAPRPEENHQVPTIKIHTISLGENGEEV
Procedure: Determination of investigated compounds' binding to α1A receptor was carried out according to the method described in [Michel AD, Loury DN and Whiting R1. Identification of a single α1A-adrenoceptor corresponding to the α1A-subtype in rat submaxillary gland. […] Prazosin is used as positive control.

adrenergic receptor α1B = biological target: T4, adrenergic receptor α1B (Rattus norvegicus, UniProt P15823); assay: Radioligand binding to adrenergic receptor α1B ([3H] Prazosin, rat liver membranes); conditions: for α-Adrenoceptor, % inhibition α1B: 10 µM ligand
T4 construct: membrane species from rat liver (rat of Wistar breed) are prepared; from tissue; host or cells: rat (Wistar) liver
T4 sequence (P15823 1-515): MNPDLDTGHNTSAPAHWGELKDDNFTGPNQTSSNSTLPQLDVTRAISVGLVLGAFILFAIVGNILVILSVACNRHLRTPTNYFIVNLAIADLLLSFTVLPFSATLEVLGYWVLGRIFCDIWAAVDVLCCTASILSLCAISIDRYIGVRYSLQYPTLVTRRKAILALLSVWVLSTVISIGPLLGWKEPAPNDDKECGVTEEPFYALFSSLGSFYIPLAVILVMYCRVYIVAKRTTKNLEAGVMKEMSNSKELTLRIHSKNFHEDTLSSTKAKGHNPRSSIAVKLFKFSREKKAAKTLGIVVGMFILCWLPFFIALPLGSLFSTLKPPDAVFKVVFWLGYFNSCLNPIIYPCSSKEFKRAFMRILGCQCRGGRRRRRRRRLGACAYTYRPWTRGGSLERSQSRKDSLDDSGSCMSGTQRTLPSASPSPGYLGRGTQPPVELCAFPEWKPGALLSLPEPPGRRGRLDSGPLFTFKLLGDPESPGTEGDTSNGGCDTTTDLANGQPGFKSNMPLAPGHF
Source text: Species heterogeneity of hepatic α1A-, α1B-, and α1C-subtypes. Biochem Biophys Res Commun. […] Prazosin is used as positive control.

[2] = biological target: T5, recombinant human 5-HT2C receptor (Homo sapiens, UniProt P28335); assay: Radioligand binding to serotonin receptor 5-HT2C ([3H] Mesulergine, CHO-K1 membranes); conditions: read-out: 5-HT2C % inhibition
T5 construct: expressed in transfected cells; host or cells: CHO-K1
T5 sequence (P28335 33-458): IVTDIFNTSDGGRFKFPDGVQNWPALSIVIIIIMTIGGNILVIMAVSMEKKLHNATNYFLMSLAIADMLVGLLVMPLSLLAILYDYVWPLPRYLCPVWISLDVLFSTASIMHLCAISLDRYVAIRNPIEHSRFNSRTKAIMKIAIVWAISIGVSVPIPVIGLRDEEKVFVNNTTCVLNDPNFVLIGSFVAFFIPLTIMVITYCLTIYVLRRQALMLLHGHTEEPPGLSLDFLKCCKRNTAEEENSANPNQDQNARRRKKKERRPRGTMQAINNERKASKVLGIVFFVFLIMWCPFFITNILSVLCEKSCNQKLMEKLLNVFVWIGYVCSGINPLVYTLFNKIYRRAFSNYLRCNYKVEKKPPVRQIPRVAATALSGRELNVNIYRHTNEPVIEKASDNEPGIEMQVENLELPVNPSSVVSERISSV
Source text: J Neurochem. 69: 1449 - 1458, 1997]. […] SB242084 is used as positive control.

human α2A receptor = biological target: T6, human α2A receptor (Homo sapiens, UniProt P08913); assay: Radioligand binding to adrenergic receptor α2A ([3H] MK-912, Sf9 membranes)
T6 construct: expressed in transfected cells; host or cells: Sf9
T6 sequence (P08913 1-465): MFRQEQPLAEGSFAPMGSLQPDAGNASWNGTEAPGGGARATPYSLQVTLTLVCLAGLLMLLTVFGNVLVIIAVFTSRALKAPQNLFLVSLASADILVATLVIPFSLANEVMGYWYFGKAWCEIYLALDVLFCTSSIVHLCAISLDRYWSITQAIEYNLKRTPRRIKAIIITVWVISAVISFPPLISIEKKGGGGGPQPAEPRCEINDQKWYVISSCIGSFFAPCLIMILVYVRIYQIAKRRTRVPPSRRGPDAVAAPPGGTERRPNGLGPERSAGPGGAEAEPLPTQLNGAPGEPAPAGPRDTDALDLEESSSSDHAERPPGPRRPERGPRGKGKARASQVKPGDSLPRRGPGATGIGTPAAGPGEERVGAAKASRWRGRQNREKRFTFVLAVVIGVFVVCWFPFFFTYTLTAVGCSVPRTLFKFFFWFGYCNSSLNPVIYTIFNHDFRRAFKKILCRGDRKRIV
Source text: For this purpose sDNA of human α2A receptor is expressed in Sf9 cells, as described in [Uhlen S, Porter AC and Neubig RR. […] J Pharmacol ExpTher. […] J Pharmacol ExpTher. […] Yohimbine is used as positive control.

human H1 receptor = biological target: T7, human H1 receptor (Homo sapiens, UniProt P35367); assay: Radioligand binding to histamine receptor H1 ([3H] Pyrilamine, CHO-K1 membranes); conditions: read-out: Histamine receptors, % inhibition H1, 10 µM ligand
T7 construct: expressed in transfected cells; host or cells: CHO-K1
Source text: Biochem Biophys Res Comm. 197(3): 1601-1608, 1993]. […] Biochem Biophys Res Comm. 197(3): 1601-1608, 1993].
Pyrilamine is used as positive control.

human H2 receptor = biological target: T8, human H2 receptor (Homo sapiens, UniProt P25021); assay: Radioligand binding to histamine receptor H2 ([125I] Aminopotentidine, CHO-K1 membranes); conditions: read-out: Histamine receptors, % inhibition H2
T8 construct: expressed in transfected cells; host or cells: CHO-K1
Source text: Proc Natl Acad Sci USA. 87(5): 1658-1662, 1990]. […] Proc Natl Acad Sci USA. 87(5): 1658-1662, 1990]. […] Tiotidine is used as positive control.

[3] = biological target: T9, recombinant human 5-HT2B receptor (Homo sapiens, UniProt P41595); assay: Radioligand binding to serotonin receptor 5-HT2B ([3H] Lysergic acid diethylamide, CHO-K1 membranes)
T9 construct: expressed in transfected cells; host or cells: CHO-K1

[4] = biological target: T10, recombinant human 5-HT2A receptor (Homo sapiens, UniProt P28223); assay: Radioligand binding to serotonin receptor 5-HT2A ([3H] Ketanserin, CHO-K1 membranes)
T10 construct: expressed in transfected cells; host or cells: CHO-K1
Source text: 9-C. […] J Neurochem. […] Ketanserin is used as positive control.

T2 sequence (P50406 whole entry): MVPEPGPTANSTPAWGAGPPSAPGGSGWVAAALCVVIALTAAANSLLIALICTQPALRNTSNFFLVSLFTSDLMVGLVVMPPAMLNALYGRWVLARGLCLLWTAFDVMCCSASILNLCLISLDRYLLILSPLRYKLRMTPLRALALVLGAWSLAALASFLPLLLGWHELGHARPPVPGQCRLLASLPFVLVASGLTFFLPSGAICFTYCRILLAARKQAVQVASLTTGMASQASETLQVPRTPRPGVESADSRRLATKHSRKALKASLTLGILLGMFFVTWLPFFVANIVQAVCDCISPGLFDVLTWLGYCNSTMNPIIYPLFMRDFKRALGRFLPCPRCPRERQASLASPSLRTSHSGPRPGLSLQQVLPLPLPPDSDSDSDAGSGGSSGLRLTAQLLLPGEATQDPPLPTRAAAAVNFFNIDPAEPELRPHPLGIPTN
T10 sequence (P28223 whole entry): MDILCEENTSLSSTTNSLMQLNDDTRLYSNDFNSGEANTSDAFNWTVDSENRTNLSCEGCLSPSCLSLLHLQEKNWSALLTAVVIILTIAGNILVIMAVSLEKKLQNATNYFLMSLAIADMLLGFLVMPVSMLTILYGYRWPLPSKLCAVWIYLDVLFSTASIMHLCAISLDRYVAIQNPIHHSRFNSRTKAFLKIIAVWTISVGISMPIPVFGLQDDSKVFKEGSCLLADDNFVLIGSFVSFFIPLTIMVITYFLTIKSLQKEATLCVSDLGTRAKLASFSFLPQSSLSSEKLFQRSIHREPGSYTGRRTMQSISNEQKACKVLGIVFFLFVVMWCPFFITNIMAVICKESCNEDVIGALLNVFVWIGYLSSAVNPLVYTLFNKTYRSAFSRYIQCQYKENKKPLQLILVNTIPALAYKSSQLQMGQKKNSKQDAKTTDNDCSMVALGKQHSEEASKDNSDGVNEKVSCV
T9 sequence (P41595 whole entry): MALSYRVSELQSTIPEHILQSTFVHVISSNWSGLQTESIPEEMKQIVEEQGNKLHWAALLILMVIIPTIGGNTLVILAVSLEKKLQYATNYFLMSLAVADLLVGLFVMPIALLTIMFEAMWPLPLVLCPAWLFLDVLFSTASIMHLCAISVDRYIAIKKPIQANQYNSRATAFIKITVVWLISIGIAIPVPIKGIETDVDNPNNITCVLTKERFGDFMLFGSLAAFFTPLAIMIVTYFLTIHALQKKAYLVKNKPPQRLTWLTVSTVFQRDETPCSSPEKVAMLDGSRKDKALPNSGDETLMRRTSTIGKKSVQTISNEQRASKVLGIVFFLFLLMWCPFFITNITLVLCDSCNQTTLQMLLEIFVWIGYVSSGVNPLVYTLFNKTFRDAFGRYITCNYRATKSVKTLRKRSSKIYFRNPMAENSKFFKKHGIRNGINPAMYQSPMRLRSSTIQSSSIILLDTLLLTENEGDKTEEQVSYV
T8 sequence (P25021 whole entry): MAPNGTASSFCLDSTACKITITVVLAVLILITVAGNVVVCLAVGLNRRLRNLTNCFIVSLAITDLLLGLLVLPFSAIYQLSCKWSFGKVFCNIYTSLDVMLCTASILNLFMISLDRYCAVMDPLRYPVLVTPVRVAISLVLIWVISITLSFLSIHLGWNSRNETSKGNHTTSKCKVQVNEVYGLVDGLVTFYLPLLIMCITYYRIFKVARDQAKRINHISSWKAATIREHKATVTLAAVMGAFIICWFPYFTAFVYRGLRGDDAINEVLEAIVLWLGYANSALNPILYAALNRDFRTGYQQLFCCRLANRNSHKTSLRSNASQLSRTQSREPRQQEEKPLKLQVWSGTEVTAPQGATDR
T7 sequence (P35367 whole entry): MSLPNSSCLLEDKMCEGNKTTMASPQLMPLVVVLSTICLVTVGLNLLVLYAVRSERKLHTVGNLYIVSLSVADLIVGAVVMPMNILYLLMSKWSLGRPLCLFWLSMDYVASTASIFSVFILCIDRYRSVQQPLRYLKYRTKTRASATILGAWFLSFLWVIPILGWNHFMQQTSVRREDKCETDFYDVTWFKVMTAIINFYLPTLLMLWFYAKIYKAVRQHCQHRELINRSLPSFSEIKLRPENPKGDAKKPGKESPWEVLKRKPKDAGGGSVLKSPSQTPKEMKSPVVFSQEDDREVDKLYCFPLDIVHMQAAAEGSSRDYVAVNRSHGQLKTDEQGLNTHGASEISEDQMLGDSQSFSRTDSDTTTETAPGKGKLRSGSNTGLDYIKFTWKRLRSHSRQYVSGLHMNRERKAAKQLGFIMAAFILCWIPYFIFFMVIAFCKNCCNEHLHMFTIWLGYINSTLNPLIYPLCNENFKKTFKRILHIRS

Structure (SMILES) | inhibition at 10 µM (human α1D receptor) [%] | % inhibition (imidazoline receptor I2) [%] | inhibition at 1 µM [1] [%] | inhibition at 1 µM [2] [%] | α-Adrenoceptor, % inhibition α1D (human α1D receptor) [%] | α-Adrenoceptor, % inhibition α1A (adrenergic receptor α1A) [%] | α-Adrenoceptor, % inhibition α1B (adrenergic receptor α1B) [%] | also measured
Cc1ccc2c(c1)c1c(n2CCc2cccnc2)CCCN(C)C1 [1.2.2(3-2)·2HCl] | 60 | 63 | 79 | 90 |  |  |  | inhibition at 10 µM (adrenergic receptor α1A; read-out: α-Adrenoceptor, % inhibition α1A): 61%; inhibition at 10 µM (adrenergic receptor α1B; read-out: α-Adrenoceptor, % inhibition α1B): 75%; inhibition at 10 µM (human α2A receptor; read-out: α-Adrenoceptor, % inhibition α2A): 71%
Cc1ccc2c(c1)c1c(n2CCc2ccc(C)nc2)CCCN(C)C1 [1.2.2(4-1)] |  | 80 |  |  | 68 | 80 | 85 | α-Adrenoceptor, % inhibition α2A (human α2A receptor; 10 µM ligand): 79%
Cc1ccc2c(c1)c1c(n2CCc2ccncc2)CCCN(C)C1 [1.2.2(5-2)] |  | 72 |  |  | 68 | 74 | 89 | 
Cc1ccc(S(=O)(=O)n2c3c(c4cc(C)ccc42)CN(C)CCC3)cc1 [1.8.1(3)·HCl] | 55 | 17 | 93 | 90 |  |  |  | IC50 [1]: 535 nM; Ki [1]: 307 nM; nH ([1]; 5-HT6): 1.07; nH ([1]; last block of Table 11: receptor printed 5-HT6 in r18, cell blank in r19-r21): 0.665; inhibition at 10 µM (human H1 receptor): 95%; inhibition at 10 µM (human H2 receptor): 82%; nH ([3]; 5-HT2B): 0.784; inhibition at 1 µM ([3]; read-out: 5-HT2B % inhibition): 101%; nH ([4]; 5-HT2A): 1.01; inhibition at 1 µM ([4]; ligand concentration 1 µM): 100%
